From patent publication US20230114728A1 (Venatorx Pharmaceuticals, Inc., priority 2019, published 2023)
≈ marks a conversion by molar mass, not a printed value.

Legend:
Test in all cases: Broth microdilution MIC in iron-depleted CAMHB (IDM)
Type in all cases: cell-based
[1] = test system: A. baumannii CDC-0045 producing TEM-1D, OXA-23, and OXA-69; conditions: Acinetobacter baumannii, read-out: Minimum Inhibitory Concentration, CDC-0045
[2] = test system: P. aeruginosa CDC-0054 producing VIM-4, OXA-50, and PAO; conditions: Pseudomonas aeruginosa, read-out: Minimum Inhibitory Concentration, P. aeruginosa CDC-0054
Description: (§1) Example IV: In Vitro Antibacterial Assays in Iron-Depleted Cation-Adjusted Mueller-Hinton Broth
(§2) To determine the ability of test compounds to inhibit the growth bacterial strains under conditions of iron-depletion, classic cell based broth microdilution minimum inhibitory concentration (MIC) assays were employed. MIC assays are performed according to CLSI methods except where otherwise noted (CLSI, 2018 and CLSI, 2019). The reference type strain E. coli ATCC 25922 was used to determine the ability of the PBP inhibitors to inhibit the growth of Enterobacteriaceae. Wild-type P. aeruginosa ATCC 27853, A. baumannii ATCC 17978 and A. baumannii ATCC 19606, along with the hyper-permeable P. aeruginosa ATCC 35151, an engineered efflux pump-compromised strain of P. aeruginosa (ΔmexAB-oprM), and an engineered efflux-pump compromised strain of A. baumannii IL123 (ABΔ3-ARAEcPore) were used to determine the ability of PBP inhibitors to penetrate the outer membrane of P. aeruginosa and A. baumannii and assess antibacterial activity against these important gram-negative organisms.
(§3) Briefly, cryo-preserved bacterial cultures of challenge strains are streaked for isolation on appropriate agar medium, in this case cation-adjusted Mueller Hinton agar. Following incubation to allow growth of the colonies, plates are sealed with parafilm and stored refrigerated for up to two weeks. For preparation of assay inoculum and to ensure low variability, at least 5 colonies are picked from the agar plates with an inoculating loop and aseptically transferred to a culture tube containing 3 mL of iron-depleted cation-adjusted Mueller Hinton broth (IDM)—see below for IDM preparation. The broth culture is grown for 3-5 hours at 37° C. with shaking at 200 rpm. Meanwhile, 2-fold serial dilutions of test compounds are conducted in a 96-well plate with a final volume of 75 μL per well at 2-fold the final desired concentration. After the dilution plates are set up the growing cultures are then diluted in a cuvette containing IDM and the optical density is measured at 600 nm. The inoculum is diluted such that 75 μL of this culture in IDM results in a starting bacterial concentration of 2-8×10^5 CFU/mL when added to the dilution plates. The plates are incubated for 16-20 hours for Enterobacteriaceae and Pseudomonas and 20-24 hours for Acinetobacter at 37° C. The MIC values are read visually as the lowest concentration well with no bacterial growth.
(§4) Method for Iron-Depleted Cation-Adjusted Mueller Hinton Broth (IDM) Preparation:
(§5) • Prepare cation-adjusted Mueller Hinton broth as per the manufacturer's recommendations and autoclave. • Add 100 g/L Chelex 100 resin, cover with foil and incubate with stirring for 2 hours • Remove Chelex 100 resin by filtration with 0.45 μm filter flask • Add the following back to the medium: • CaCl2 dihydrate: 82.5 mg/L • MgCl2 hexahydrate: 94.1 mg/L • ZnSO4: 10 μM • Adjust pH of medium to 7.3 with 5 N HCl • Sterilize using a 0.22 µm filter flask

[3] = test system: A. baumannii ATCC 17978; conditions: Acinetobacter baumannii, ATCC17978, read-out: Minimum Inhibitory Concentration, ATCC 17978
Description: as §1, §2, §3, §4, §5

[4] = test system: A. baumannii CDC-0083 producing NDM-1, PER-7, OXA-23, and OXA-69; conditions: Acinetobacter baumannii, read-out: Minimum Inhibitory Concentration, CDC-0083
Description: as §1, §2, §3, §4, §5

[5] = test system: A. baumannii ATCC 19606; conditions: Acinetobacter baumannii, ATCC19606, read-out: Minimum Inhibitory Concentration, ATCC 19606
Description: as §1, §2, §3, §4, §5

[6] = test system: P. aeruginosa ATCC 27853; conditions: Pseudomonas aeruginosa, ATCC27853, read-out: Minimum Inhibitory Concentration, P. aeruginosa ATCC 27853
Description: as §1, §2, §3, §4, §5

[7] = test system: A. baumannii CDC-0036 OXA-65, and OXA-24; conditions: Acinetobacter baumannii, read-out: Minimum Inhibitory Concentration, CDC-0036
Description: as §1, §2, §3, §4, §5

[8] = test system: P. aeruginosa CDC-0090 producing KPC-5, OXA-50, and PAO; conditions: Pseudomonas aeruginosa, read-out: Minimum Inhibitory Concentration, P. aeruginosa CDC-0090
Description: as §1, §2, §3, §4, §5

[9] = test system: P. aeruginosa CDC-0095 producing OXA-50, and PAO; conditions: Pseudomonas aeruginosa, read-out: Minimum Inhibitory Concentration, P. aeruginosa CDC-0095
Description: as §1, §2, §3, §4, §5

[10] = test system: P. aeruginosa ATCC 35151; conditions: Pseudomonas aeruginosa, ATCC35151; iron-depleted MHB (IDM); hyper-permeable strain; read-out: Minimum Inhibitory Concentration, P. aeruginosa ATCC 35151
Description: as §1, §2, §3, §4, §5

[11] = test system: A. baumannii CDC-0033 producing NDM-1, and OXA-94; conditions: Acinetobacter baumannii, read-out: Minimum Inhibitory Concentration, CDC-0033
Description: as §1, §2, §3, §4, §5

[12] = test system: P. aeruginosa (ΔmexAB-oprM); conditions: Pseudomonas aeruginosa, read-out: Minimum Inhibitory Concentration, P. aeruginosa ΔmexAB-OprM
Description: as §1, §2, §3, §4, §5

[13] = test system: P. aeruginosa CDC-0110; conditions: Pseudomonas aeruginosa, CDC0110, read-out: Minimum Inhibitory Concentration, P. aeruginosa CDC-0110
Description: as §2, §3, §4, §5

| SMILES | MIC [1] | MIC [2] | MIC [3] | MIC [4] | MIC [5] | MIC [6] | MIC [7] | MIC [8] | MIC [9] | MIC [10] | MIC [11] | MIC [12] | MIC [13] |
| --- | --- | --- | --- | --- | --- | --- | --- | --- | --- | --- | --- | --- | --- |
| NC(C(=O)N[C@H]1Cc2ccc(F)c(C(=O)O)c2OB1O)c1c(F)cc(O)c(O)c1Cl (stereo partly drawn) [Example 25, (3R)-3-(2-amino-2-(2-chloro-6-fluoro-3,4-dihydroxyphenyl)acetamido)-7-fluoro-2-hydroxy-3,4-dihydro-2H-benzo[e][1,2]oxaborinine-8-carboxylic acid] | 32 to 64 µg/mL (≈ 72.3 to 145 µM) | 32 to 64 µg/mL (≈ 72.3 to 145 µM) | 32 to 64 µg/mL (≈ 72.3 to 145 µM) | 32 to 64 µg/mL (≈ 72.3 to 145 µM) | 32 to 64 µg/mL (≈ 72.3 to 145 µM) | 32 to 64 µg/mL (≈ 72.3 to 145 µM) | 32 to 64 µg/mL (≈ 72.3 to 145 µM) | 32 to 64 µg/mL (≈ 72.3 to 145 µM) | 32 to 64 µg/mL (≈ 72.3 to 145 µM) | 8 to 16 µg/mL (≈ 18.1 to 36.2 µM) | 32 to 64 µg/mL (≈ 72.3 to 145 µM) | 32 to 64 µg/mL (≈ 72.3 to 145 µM) | 32 to 64 µg/mL (≈ 72.3 to 145 µM) |
| O=C(O)c1ccc(C(NC(=O)N2CCN(CCNC(=O)c3ccc(O)c(O)c3Cl)C(=O)C2=O)C(=O)N[C@H]2Cc3ccc(F)c(C(=O)O)c3OB2O)cc1F (stereo partly drawn) [Example 11, (3R)-3-(2-(4-carboxy-3-fluorophenyl)-2-(4-(2-(2-chloro-3,4-dihydroxybenzamido)ethyl)-2,3-dioxopiperazine-1-carboxamido)acetamido)-7-fluoro-2-hydroxy-3,4-dihydro-2H-benzo[e][1,2]oxaborinine-8-carboxylic acid] |  |  |  |  | > 128 µg/mL | 2 to 4 µg/mL (≈ 2.58 to 5.17 µM) |  |  |  | 0.25 µg/mL (≈ 0.323 µM) |  | 0.5 to 1 µg/mL (≈ 0.646 to 1.29 µM) |  |
| NCCCN1CCN(C(=O)N[C@@H](C(=O)N[C@H]2Cc3ccc(F)c(C(=O)O)c3OB2O)c2c(F)cc(O)c(O)c2Cl)C(=O)C1=O (single isomer, unassigned) [Example 27] | 0.5 to 1 µg/mL (≈ 0.782 to 1.56 µM) | 0.25 µg/mL (≈ 0.391 µM) | 0.25 µg/mL (≈ 0.391 µM) | 0.25 µg/mL (≈ 0.391 µM) | 0.25 µg/mL (≈ 0.391 µM) | 0.5 to 1 µg/mL (≈ 0.782 to 1.56 µM) | 2 to 4 µg/mL (≈ 3.13 to 6.25 µM) | 0.25 µg/mL (≈ 0.391 µM) | 8 to 16 µg/mL (≈ 12.5 to 25 µM) | 0.25 µg/mL (≈ 0.391 µM) | 0.5 to 1 µg/mL (≈ 0.782 to 1.56 µM) | 0.25 µg/mL (≈ 0.391 µM) | 2 to 4 µg/mL (≈ 3.13 to 6.25 µM) |
| CCN1CCN(C(=O)NC(C(=O)N[C@H]2Cc3cccc(C(=O)O)c3OB2O)c2cccc(NC(=O)c3ccc(O)c(O)c3Cl)c2)C(=O)C1=O (stereo partly drawn) [Example 73, (3R)-3-(2-(3-(2-chloro-3,4-dihydroxybenzamido)phenyl)-2-(4-ethyl-2,3-dioxopiperazine-1-carboxamido)acetamido)-2-hydroxy-3,4-dihydro-2H-benzo[e][1,2]oxaborinine-8-carboxylic acid] | 32 to 64 µg/mL (≈ 46.1 to 92.2 µM) | 2 to 4 µg/mL (≈ 2.88 to 5.76 µM) | 2 to 4 µg/mL (≈ 2.88 to 5.76 µM) | 32 to 64 µg/mL (≈ 46.1 to 92.2 µM) | 2 to 4 µg/mL (≈ 2.88 to 5.76 µM) | 8 to 16 µg/mL (≈ 11.5 to 23.1 µM) | 32 to 64 µg/mL (≈ 46.1 to 92.2 µM) | 2 to 4 µg/mL (≈ 2.88 to 5.76 µM) | 2 to 4 µg/mL (≈ 2.88 to 5.76 µM) | 0.25 µg/mL (≈ 0.36 µM) | 32 to 64 µg/mL (≈ 46.1 to 92.2 µM) | 0.25 µg/mL (≈ 0.36 µM) | 0.5 to 1 µg/mL (≈ 0.721 to 1.44 µM) |
| NCCN1CCN(C(=O)N[C@@H](C(=O)N[C@H]2Cc3ccc(F)c(C(=O)O)c3OB2O)c2c(F)cc(O)c(O)c2Cl)C(=O)C1=O (single isomer, unassigned) [Example 26] | 0.5 to 1 µg/mL (≈ 0.799 to 1.6 µM) | 0.5 to 1 µg/mL (≈ 0.799 to 1.6 µM) | 0.25 µg/mL (≈ 0.4 µM) | 0.25 µg/mL (≈ 0.4 µM) | 0.5 to 1 µg/mL (≈ 0.799 to 1.6 µM) | 0.5 to 1 µg/mL (≈ 0.799 to 1.6 µM) | 8 to 16 µg/mL (≈ 12.8 to 25.6 µM) | 0.25 µg/mL (≈ 0.4 µM) | 32 to 64 µg/mL (≈ 51.1 to 102 µM) | 0.25 µg/mL (≈ 0.4 µM) | 2 to 4 µg/mL (≈ 3.2 to 6.39 µM) | 0.25 µg/mL (≈ 0.4 µM) | 0.5 to 1 µg/mL (≈ 0.799 to 1.6 µM) |
